# Key:
# mouse TGR5 receptor = molecular target: T1, mouse TGR5 receptor (Mus musculus, UniProt Q80SS6); assay: Mouse TGR5 HTRF cAMP production assay (HEK293-EBNA cells, Cisbio cAMP HiRange kit); type: cell-based; details: HEK293-EBNA cells overexpressing mouse TGR5, HTRF cAMP assay
# T1 construct: host or cells: HEK293-EBNA (293 c18, ATCC CRL10852)
# T1 sequence (Q80SS6 1-329): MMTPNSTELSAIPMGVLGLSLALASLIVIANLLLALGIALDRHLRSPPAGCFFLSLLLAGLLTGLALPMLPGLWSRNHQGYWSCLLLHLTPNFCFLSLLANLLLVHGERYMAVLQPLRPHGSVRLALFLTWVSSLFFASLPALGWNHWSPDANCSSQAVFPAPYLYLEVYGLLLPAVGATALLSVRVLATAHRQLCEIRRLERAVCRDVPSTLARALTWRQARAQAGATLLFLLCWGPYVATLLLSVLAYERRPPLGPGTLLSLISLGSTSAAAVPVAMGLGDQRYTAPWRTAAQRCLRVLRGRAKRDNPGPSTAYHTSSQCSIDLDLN
# Experimental: Mouse TGR5 cAMP Production Assay
# Compounds of the present invention were evaluated for their ability to induce cAMP production in HEK-EBNA cells overexpressing the mouse TGR5 receptor. Human embryonic kidney cells (HEK293-EBNA) stably expressing mouse TGR5 receptor were established using the following procedure. Specifically, a commercially obtained gene encoding mouse TGR5 (accession number BC116914) from Thermo Scientific (Waltham, Mass.) was cloned into an episomal expression vector. The resulting expression plasmid was then transfected into 293 c18 (ATCC® CRL10852™) cells, which express the Epstein-Barr virus nuclear antigen EBNA1 and can support the replication of episomal vectors. Selection for the plasmid was maintained with Hygromycin B. Cells were cultured and maintained in DMEM (Sigma; cat #6429) supplemented with 10% Fetal Bovine Serum, 1% penicillin/streptomycin, 2 mM L-alanine L-glutamine (GlutaMax), and 250 μg/mL Hygromycin.
# We developed two cAMP production assays.
# (ii) HTRF cAMP Production Assay
# In this second cAMP production assay, the cAMP production was measured in 384-well low volume plates (Greiner; cat #784075) using the Cisbio™ cAMP HiRange HTRF Assay Kit (CisBio) according to the manufacturer's protocol.
# Briefly, compounds were initially diluted in 100% DMSO (12-point serial dilution by half logs) in a 96-well plate and then were further diluted 1:50 in PBS containing 10 mM HEPES. 5 μL were transferred to the 384-well assay plate in duplicate. HEK293-EBNA cells stably overexpressing mouse TGR5 were harvested using non-enzymatic cell dissociation buffer (Sigma), spun down, then resuspended in serum-free DMEM with 500 μM IBMX at a density of 500,000 cells/mL. 5 μL of cell suspension was transferred to each well of the 384-well assay plate already containing compound. The plate was covered and incubated at room temperature for 1 hour. The d2-cAMP and anti-cAMP Ab-cryptate stock solutions were prepared as per kit instructions. Then 5 μL of each conjugate (d2 and cryptate) were added to each well of the assay plate. The plate was covered and incubated at room temperature for one (1) hour. The plate was read on an Envision™ plate reader (PerkinElmer).
# (§1) In Table 52, EC50 values for both human and mouse cells were determined according to the TGR5 cAMP assays described above. […]
# human TGR5 receptor = molecular target: T2, human TGR5 receptor (Homo sapiens, UniProt Q8TDU6); assay: Human TGR5 cAMP production assay (hTGR5-CHO cells, DiscoveRx cAMP XS+ kit); type: cell-based; details: luminescent cAMP assay, read-out: Human TGR5 Lum. cAMP Activity (EC50)
# T2 construct: host or cells: CHO-K1 (hTGR5-CHO)
# T2 sequence (Q8TDU6 1-330): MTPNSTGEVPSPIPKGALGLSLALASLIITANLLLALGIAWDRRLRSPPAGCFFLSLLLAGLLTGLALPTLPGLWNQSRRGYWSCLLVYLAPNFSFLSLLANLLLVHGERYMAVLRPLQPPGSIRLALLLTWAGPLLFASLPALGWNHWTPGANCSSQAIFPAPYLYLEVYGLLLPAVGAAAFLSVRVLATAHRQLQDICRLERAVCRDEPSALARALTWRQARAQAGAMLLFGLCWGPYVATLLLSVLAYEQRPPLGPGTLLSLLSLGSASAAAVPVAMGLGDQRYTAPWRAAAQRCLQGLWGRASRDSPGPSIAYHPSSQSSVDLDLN
# Experimental: Human TGR5 cAMP Production Assay
# Compounds of the present invention were evaluated for their ability to induce cAMP production using CHO-K1 cells overexpressing the human TGR5 receptor.
# CHO-K1 cells stably expressing human TGR5 receptor (accession number NM_001077194.1) (hTGR5) (i.e., hTGR5-CHO cells) were purchased from DiscoveRx Corporation (Fremont, Calif.). hTGR5-CHO cells were grown in Ham's F-12 media supplemented with 10% Fetal Bovine Serum, 1% Penicillin-Streptomycin, 2 mM L-Alanine L-Glutamine (Glutamax), and 800 μg/mL Geneticin selection. The cAMP production assay was performed using DiscoveRx's cAMP XS+ kit (Catalog No. 90-0075XL) following the manufacturer's recommended protocol. Briefly, hTGR5-CHO cells were harvested using non-enzymatic cell dissociation buffer (Sigma-Aldrich, St. Louis, Mo.) and 1×10^6 cells were combined in Phosphate-Buffered Saline (PBS) to a final volume of 496 μL to which 4 μL of 125 mM IBMX (Sigma-Aldrich, St. Louis, Mo.) was added. 500 μL of cAMP antibody solution was added to the harvested cells and incubated at room temperature for 20 min.
# Test compounds were serially diluted (half-log dilutions) in DMSO and then further diluted 1:50 in PBS, 10 mM HEPES buffer. 2 μL of serially diluted compound was added to a 384-well low volume plate (Greiner; cat #784075) and centrifuged briefly. 2 μl of the cell/cAMP antibody mixture was then added to each compound-containing well and allowed to incubate at room temperature for one hour. Following incubation, the XS+ kits' ED/Lysis/CL Substrate Working Solution was prepared following the manufacturer's recommended protocol and 4 μL was added to each well of the plate. The plate was then incubated for one hour at room temperature. Following incubation, 4 μL of Enzyme Acceptor reagent was added to the plate and allowed to incubate overnight at room temperature. Luminescent signal was then detected using the Viewlux instrument (Perkin-Elmer, Waltham, Mass.).
# Human and Mouse TGR5 cAMP
# as §1
Structure (SMILES),EC50 (mouse TGR5 receptor) [nM],EC50 (human TGR5 receptor) [nM]
"N#Cc1ccc(CCNC(=O)[C@@H]2CCCN2c2cc(N3CCC(CCCC(=O)NCCNC(=O)c4cc(NC[C@H](O)[C@@H](O)[C@H](O)[C@H](O)CO)ncn4)CC3)nc(C(F)(F)F)n2)cc1 [Compound 100, N-(2-(4-(1-(6-((S)-2-((4-cyanophenethyl)carbamoyl)pyrrolidin-1-yl)-2-(trifluoromethyl)pyrimidin-4-yl)piperidin-4-yl)butanamido)ethyl)-6-(((2S,3R,4R,5R)-2,3,4,5,6-pentahydroxyhexyl)amino)-pyrimidine-4-carboxamide]",< 100,100 to 999
"N#Cc1ccc(CCNC(=O)[C@@H]2CCCN2c2cc(N3CCC(CCCC(=O)NCCNc4nccc(C(=O)O)n4)CC3)nc(C(F)(F)F)n2)cc1 [Compound 102, (S)-2-((2-(4-(1-(6-(2-((4-cyanophenethyl)carbamoyl)pyrrolidin-1-yl)-2-(trifluoromethyl)pyrimidin-4-yl)piperidin-4-yl)butanamido)ethyl)amino) pyrimidine-4-carboxylic acid]",< 100,< 100
"N#Cc1ccc(CCNC(=O)[C@@H]2CCCN2c2cc(N3CCC(CCCC(=O)N4CCN(CC(=O)O)CC4)CC3)nc(C(F)(F)F)n2)cc1 [Compound 108, (S)-2-(4-(4-(1-(6-(2-((4-cyanophenethyl)carbamoyl)pyrrolidin-1-yl)-2-(trifluoromethyl)pyrimidin-4-yl)piperidin-4-yl)butanoyl)piperazin-1-yl)acetic acid]",< 100,< 100
"N#Cc1ccc(CCNC(=O)[C@@H]2CCCN2c2cc(N3CCC(CCN4C(=O)N[C@@H](CS(=O)(=O)O)C4=O)CC3)nc(C(F)(F)F)n2)cc1 [Compound 122, ((R)-1-(2-(1-(6-((S)-2-((4-cyanophenethyl)carbamoyl)pyrrolidin-1-yl)-2-(trifluoromethyl)pyrimidin-4-yl)piperidin-4-yl)ethyl)-2,5-dioxoimidazolidin-4-yl)methanesulfonic acid]",< 100,< 100
"N#Cc1ccc(CCNC(=O)[C@@H]2CCCN2c2cc(N3CCC(CCCC(=O)NCCNC(=O)CS(=O)(=O)O)CC3)nc(C(F)(F)F)n2)cc1 [Compound 124, (S)-2-((2-(4-(1-(6-(2-((4-cyanophenethyl)carbamoyl)pyrrolidin-1-yl)-2-(trifluoromethyl)pyrimidin-4-yl)piperidin-4-yl)butanamido)-ethyl)amino)-2-oxoethanesulfonic acid]",< 100,< 100
"N=C(N)NCCCC1CCN(c2cc(N3CCC[C@H]3C(=O)NCCc3ccc(C(F)(F)F)cc3)nc(C(F)(F)F)n2)CC1 [Compound 132, (S)-1-(6-(4-(3-guanidinopropyl)piperidin-1-yl)-2-(trifluoromethyl)pyrimidin-4-yl)-N-(4-(trifluoromethyl)phenethyl)-pyrrolidine-2-carboxamide]",< 100,< 100
"CN(CC#CCOC1CCN(c2cc(N3CCC[C@H]3C(=O)NCCc3ccc(C#N)cc3)nc(C(F)(F)F)n2)CC1)CCS(=O)(=O)O [Compound 135, (S)-2-((4-((1-(6-(2-((4-cyanophenethyl)carbamoyl)pyrrolidin-1-yl)-2-(trifluoromethyl)pyrimidin-4-yl)piperidin-4-yl)oxy)but-2-yn-1-yl)(methyl)amino)ethanesulfonic acid]",< 100,100 to 999
"Cc1ccsc1-c1cc(N2CCC[C@H]2C(=O)NCCc2ccc(C#N)cc2)nc(C(F)(F)F)n1 [Compound 172, (S)-N-(4-cyanophenethyl)-1-(6-(3-methylthiophen-2-yl)-2-(trifluoromethyl)pyrimidin-4-yl)pyrrolidine-2-carboxamide]",100 to 999,100 to 999
"N#Cc1ccc(CCNC(=O)[C@@H]2CCCN2c2cc(-c3ccc(C(=O)O)s3)nc(C(F)(F)F)n2)cc1 [Compound 181, (S)-5-(6-(2-((4-cyanophenethyl)carbamoyl)pyrrolidin-1-yl)-2-(trifluoromethyl)pyrimidin-4-yl)thiophene-2-carboxylic acid]",< 100,100 to 999
"N#Cc1ccc(CCNC(=O)[C@@H]2CCCN2c2cc(-c3csc(CO)c3)nc(C(F)(F)F)n2)cc1 [Compound 182, (S)—N-(4-cyanophenethyl)-1-(6-(5-(hydroxymethyl)thiophen-3-yl)-2-(trifluoromethyl)pyrimidin-4-yl)pyrrolidine-2-carboxamide]",< 100,100 to 999
"N#Cc1ccc(CCNC(=O)[C@@H]2CCCN2c2cc(-c3ccc(CO)s3)nc(C(F)(F)F)n2)cc1 [Compound 183, (S)-N-(4-cyanophenethyl)-1-(6-(5-(hydroxymethyl)thiophen-2-yl)-2-(trifluoromethyl)pyrimidin-4-yl)pyrrolidine-2-carboxamide]",< 100,100 to 999
"N#Cc1ccc(CCNC(=O)[C@@H]2CCCN2c2cc(-c3ccc(CCN)cc3)nc(C(F)(F)F)n2)cc1 [Compound 184, (S)-1-(6-(4-(2-aminoethyl)phenyl)-2-(trifluoromethyl)pyrimidin-4-yl)-N-(4-cyanophenethyl)pyrrolidine-2-carboxamide]",100 to 999,100 to 999
"N#Cc1ccc(CCNC(=O)[C@@H]2CCCN2c2cc(-c3ccc(CN4CCNCC4)cc3)nc(C(F)(F)F)n2)cc1 [Compound 187, (S)-N-(4-cyanophenethyl)-1-(6-(4-(piperazin-1-ylmethyl)phenyl)-2-(trifluoromethyl)pyrimidin-4-yl)pyrrolidine-2-carboxamide]",100 to 999,1000 to 30000
"N#Cc1ccc(CCNC(=O)[C@@H]2CCCN2c2cc(-c3ccc(CCC(=O)O)cc3)nc(C(F)(F)F)n2)cc1 [Compound 188, (S)-3-(4-(6-(2-((4-cyanophenethyl)carbamoyl)pyrrolidin-1-yl)-2-(trifluoromethyl)pyrimidin-4-yl)phenyl)propanoic acid]",< 100,100 to 999
